Measured values from patent US20120107323A1, “KINASE PROTEIN BINDING INHIBITORS” (University of Florida, priority 2009, published 2012).

Assays:
[1] = system: A375 subcutaneous tumor; assay: A375 melanoma xenograft in nude mice; assay type: in vivo; conditions: A375, 15 mg/kg daily intraperitoneal, 21 days, p<0.05
Experimental: Kinase Profiler Screening: Kinase specificity screening was performed with Invitrogen's SelectScreen® Kinase Profiling Services http://www.invitrogen.com/site/us/en/home/Products-and-Services/Services/Discoverv-Research/SelectScreen-Profiling-Service/SelectScreen-Kinase-Profiling-Service.html. The screening was performed with 1 μM compound, INT2-31, 10 μM ATP, and kinase substrates against ten recombinant kinases according to Z′-LYTET™ Kinase Assay. For PI3 kinase activity, 100 μM ATP, and kinase substrate were utilized with the Invitrogen Adapta® Universal Kinase Assay protocol. Tumor Growth in Nude Mice in vivo: Six week old athymic, female nude mice were purchased from Harlan Laboratory. The mice were maintained in the animal facility, and all experiments were performed in compliance with NIH animal-use guidelines and under an IACUC approved protocol. […] Tumor diameters were measured with calipers, and tumor volume in mm^3 was calculated using the formula [(width)^2×length]/2. At the end of experiment, tumor weight and volume were determined.
For the melanoma study, the University of Florida IACUC approved the following protocol (IACUC Study #200801077). […] Tumor diameters were measured with calipers, and tumor volume in mm^3 was calculated using the formula [(width)^2×length]/2. At the end of experiment, tumor weight and volume were determined.

[2] = system: Panc-1 pancreatic cancer cells; assay: Cell viability (MTT), Panc-1; assay type: cell-based
Experimental: (§1) Cell viability (MTT) and CFSE Proliferation assay: Cells were plated in 96-well plates and let adhere overnight. After cell treatment, cell viability was measured by 3-(4,5-dimethylthiazol-2-yl)-2,5-diphenyl tetrazolium bromide (MTT) assay (CellTiter 96® Aqueous, Promega, Madison, Wis.).
(§2) Cell viability and detachment assays: After cells were treated with siRNA transfection, cell viability was measured by 3-(4,5-dimethylthiazol2-yl)-2,5-diphenyl tetrazolium bromide (MTT) assay (CellTiter 96® AQueous, Promega, Madison, Wis.). Briefly, 20 μl of the tetrazolium compound was added to each well. The cells were then incubated at 37° C. for 1 h. The plate was read at 490 nm with a plate reader to determine the viability. In detachment assays, detached and attached cells were harvested separately and counted in a hemocytometer. The percentage of detachment was calculated by dividing the number of detached cells by the total number of cells. Apoptosis assays: After treatment, attached and detached cells were collected, counted and prepared for terminal uridine deoxynucleotidyl transferase (TUNEL) assay by utilizing an APO-BRDU kit (BD Pharmingen, San Diego, Calif.) according to the manufacturer's instructions. Stained cells were analyzed with a fluorescence-activated cell sorting-Calibur flow cytometer (BD Biosciences). Calculation of the percentage of apoptotic cells in the sample was completed with CellQuest software (BD Biosciences). Apoptotic cells were also analyzed by Hoechst staining. Hoechst 33342 (1 µg/rill) was added to the fixed cells and the specimens were mounted on glass coverslips. The slides were viewed under the Zeiss microscope for apoptotic nuclei. The percent of apoptotic cells was calculated as the ratio of apoptotic cells to total number of cells.
In addition, the effect of INT2-31 on cell viability of esophageal, pancreatic and breast cancer cell lines was analyzed and the IC50 value for each cell line was determined, as shown in Table 1. […] Similar to melanoma results, INT2-31 inhibits viability more in cancer cells compared to normal cells. Sensitivity of the cells to INT2-31 varied and directly correlated to the FAK and IGF-1R expression level of the cells.

[3] = system: BT474 breast cancer cells; assay: Cell viability (MTT), BT474; assay type: cell-based; conditions: Homo sapiens, BT-474; BT474, 72 hours; read-out: IC50 of INT2-31, cell viability
Experimental: as §1
as §2, with “Calculation of the percentage of apoptotic cells in the sample was completed with CellQuest software (BD Biosciences).” left out, “Hoechst 33342 (1 µg/rill) was added to the fixed cells and the specimens were mounted on glass coverslips. The slides were viewed under the Zeiss microscope for apoptotic nuclei. The percent of apoptotic cells was calculated as the ratio of apoptotic cells to total number of cells.” left out

For `CSc1ncnc2c1ccn2C1O[C@H](COP(=O)(O)O)[C@@H](O)[C@H]1O` (stereo partly drawn) [INT2-31, 4-(Methylthio)-7-(5-O-phosphono-D-ribofuranosyl)-{7H-Pyrrolo[2,3-d]pyrimidine}], the “subcutaneous tumor growth compared to PBS control” value [1] was “significant decrease”, the IC50 ([2]; Homo sapiens, Panc-1, 72 hours, read-out: IC50 of INT2-31, cell viability) was 6.7 µM and the “cell viability (in words)” value ([2]; Panc-1, 72 hours) was “inhibits the cell viability”. The “effect of combination with 5-FU on cell viability” value ([2]; pancreatic cancer cells, 1 μM INT2-31) was “synergistic effects”, the “effect of combination with gemcitabine on cell viability” value ([2]; pancreatic cancer cells, data not shown) was “only additive” and the IC50 [3] was 2.39 µM.
